Measured values as given in PMC10215404, “Effect of Indole-Containing Pyrazino[2,1-b]quinazoline-3,6-diones in the Virulence of Resistant Bacteria” (Antibiotics, 2023).
In brackets after ≈: the same amount, converted by molar mass. Several values for one entry are separate records, joined by “and”; a condition that tells them apart may be missing. Equal values may be shown once. Read-outs that look alike come from different tables or passages of the source.

Tests used:
E. coli SA/2 = tested on: E. coli SA/2; parameters: method as in PMID 34203998; conditions: cited from earlier work
E. coli AG100A [1] = test: Real-time ethidium bromide accumulation assay (efflux pump inhibition); conditions: minute 60
E. coli AG100 [2] = test: as above; conditions: minute 60
E. coli AG100A [3] = test: Biofilm formation, crystal violet method; format: cell-based, Escherichia coli
Method: (§1) The antibiofilm effect of the tested compounds was evaluated using the crystal violet method on E. coli AG100, E. coli AG100A, and MRSA 272123. […] CCCP was used as a positive control.
(§2) The biofilm-forming ability of the S. aureus strains was studied in 96-well microtiter plates using TSB broth in the presence of compounds. The biofilm-forming ability of the E. coli strains was studied in 96-well microtiter plates using LB broth in the presence of the compounds. […] The final volume was 200 μL in each well. The positive control was CCCP at 50 µM. Plates were incubated for 48 h at 30 °C with gentle shaking at 100 rpm. After the incubation period, the medium was removed and the plate was washed with water to remove unattached cells. A total of 200 μL CV (0.1% [v/v]) was added to each wells and incubated for 15 min at room temperature. CV was discarded from the wells and the plate was washed with water again. Then, 200 μL of 70% ethanol was added to each well and the biofilm formation was determined by measuring the OD at 600 nm using a Multiscan EX ELISA plate reader (Thermo Labsystems, Cheshire, WA, USA). The antibiofilm effect of the compounds was expressed as the percentage (%) decrease in biofilm formation.

E. coli AG100 [4] = test: Biofilm formation, crystal violet method; format: cell-based, Escherichia coli; conditions: 50 μM
Method: as §1, §2

S. aureus 272123 = test: Real-time ethidium bromide accumulation assay (efflux pump inhibition); conditions: minute 60
[5] = tested on: NIH/3T3 mouse fibroblast cell line; test: Cytotoxicity assay (MTT); format: cell-based; conditions: NIH3T3, 24 h
Method: The effects of increasing concentrations of compounds on cell growth were tested in 96-well flat-bottomed microtiter plates. The compounds were diluted in a volume of 100 μL of medium. Afterwards, 1 × 10^4 cells in 100 μL of medium were added to each well, with the exception of the medium control. In the case of NIH/3T3 cells, the compounds were added after seeding the cells at 37 °C overnight. The plates were incubated at 37 °C for 24 h; after the incubation period, 20 μL of MTT solution (from a 5 mg/mL stock) was added to each well. After 4 h of incubation at 37 °C, 100 μL of SDS solution (10% in 0.01 M HCl) was added to each well and the plates were incubated at 37 °C overnight. Cell growth was determined by measuring the optical density (OD) at 540 nm (ref. 630 nm) with a Multiscan EX ELISA reader. Inhibition of cell growth was determined as IC50 values, defined as the inhibitory dose that reduced the growth of the cells exposed to the tested compounds by 50%. IC50 values and the SD of triplicate experiments were calculated by using GraphPad Prism software version 5.00 for Windows with a nonlinear regression curve fit (GraphPad Software, San Diego, CA, USA; www.graphpad.com, accessed on 14 July 2022). Doxorubicin (from a 2 mg/mL stock solution, Teva Pharmaceuticals) was used as the positive control.

phytopathogenic fungi = tested on: phytopathogenic fungi; parameters: method as in PMID 22409377; conditions: several phytopathogenic fungi; cited from earlier work
[6] = tested on: E. coli (ATCC 25922, SA/2, AG100, AG100A); test: MIC determination, broth microdilution; format: cell-based; conditions: Escherichia coli, ATCC25922
Text: (§3) Both reference and resistant strains used in this work were employed by our group for the screening of different families of compounds, such as xanthones and thioxanthones.

E. faecalis ATCC 29212 = test: MIC determination, broth microdilution; format: cell-based; conditions: Enterococcus faecalis
Text: as §3

S. aureus MRSA 272123 = test: MIC determination, broth microdilution; format: cell-based; conditions: Staphylococcus aureus
Text: as §3

S. aureus ATCC 29213 = test: MIC determination, broth microdilution; format: cell-based; conditions: Staphylococcus aureus
Text: as §3

E. faecalis B3/101 (VRE) = test: MIC determination, broth microdilution; format: cell-based; conditions: Enterococcus faecalis
Text: as §3

P. aeruginosa ATCC 27853 = test: MIC determination, broth microdilution; format: cell-based; conditions: Pseudomonas aeruginosa, ATCC27853
Text: as §3

S. aureus 66/1 (MRSA) = test: MIC determination, broth microdilution; format: cell-based; conditions: Staphylococcus aureus
Text: as §3

MRSA 272123 = test: Biofilm formation, crystal violet method; format: cell-based, Staphylococcus aureus
Method: as §1, §2

Staphylococcus aureus = conditions: cited from earlier work
E. coli AG100A [7] = test: MIC determination, broth microdilution; format: cell-based; conditions: Escherichia coli
Text: as §3

E. coli AG100 [8] = test: MIC determination, broth microdilution; format: cell-based; conditions: Escherichia coli
Text: as §3

E. faecalis PSi/107 = test: MIC determination, broth microdilution; format: cell-based; conditions: Enterococcus faecalis
Text: as §3

E. faecalis PFi/2 = test: MIC determination, broth microdilution; format: cell-based; conditions: Enterococcus faecalis
Text: as §3

E. faecalis B3/101 = test: Antibiotic potentiation with vancomycin, broth microdilution
[9] = tested on: E. coli AG100, E. coli AG100A, and MRSA 272123; test: Biofilm formation, crystal violet method (overall statement); format: cell-based
Method: as §1, §2

[10] = tested on: S. aureus, including the MRSA strains; test: MIC, summary over S. aureus strains; conditions: Staphylococcus aureus
Method: (§4) The MIC of each compound was determined by the broth microdilution method, in accordance with the recommendations of the CLSI [48]. Two-fold serial dilutions of the compounds were prepared in Mueller–Hinton Broth 2 (MHB2–Sigma-Aldrich, St. Louis, MO, USA). Sterility and growth controls were included in each assay. Quality controls were performed with erythromycin for the Gram-positive bacterial strains and with colistin for the Gram-negative bacterial strains. Purity check and colony counts of the inoculum suspensions were also performed to ensure that the final inoculum density closely approximated 5 × 10^5 CFU/mL. The MIC was determined as the lowest concentration at which no visible growth was observed. […] The reported MIC results arose from at least three independent experiments.

[11] = tested on: E. faecalis including VRE; test: MIC, summary over E. faecalis strains; conditions: Enterococcus faecalis
Method: as §4

Enterococcus faecalis = conditions: E. faecalis B3/101; cited from earlier work
[12] = ATCC29212, value in parentheses
[13] = ATCC29213, value in parentheses

SMILES: CO/N=C(\C(=O)N[C@@H]1C(=O)N2C(C(=O)O)=C(COC(C)=O)CS[C@H]12)c1csc(N)n1 [CTX, cefotaxime]
- MIC (E. coli SA/2): 512 µg/mL (≈ 1120 µM)

SMILES: C[C@@H]1NC(=O)[C@@H](Cc2c[nH]c3ccccc23)n2c1nc1ccccc1c2=O [Compound 2, (1S,4R)-4-((1H-indol-3-yl)methyl)-1-methyl-1,2-dihydro-6H-pyrazino[2,1-b]quinazoline-3,6(4H)-dione]
- RFI ± SD (E. coli AG100A [1]; compound at 100 μM): 0.26 ± 0.10
- RFI ± SD (E. coli AG100 [2]; compound at 50 μM): −0.31 ± 0.02
- RFI ± SD (E. coli AG100 [2]; compound at 100 μM): 0.17 ± 0.10
- decrease in biofilm formation (E. coli AG100A [3]): 65%
- antibiofilm effect (in words) (E. coli AG100 [4]): reduced the amount of biofilm
- RFI ± SD (S. aureus 272123; compound at 50 μM): −0.01 ± 0.02
- RFI ± SD (S. aureus 272123; compound at 100 μM): 0.05 ±0.02
- IC50 [5]: > 100 µM
- MIC (phytopathogenic fungi): 12.5 to 25 µg/mL
- MIC [6]: > 100 µM
- MIC (E. faecalis ATCC 29212; ATCC29212): > 100 µM
- MIC (S. aureus MRSA 272123): > 100 µM
- MIC (S. aureus ATCC 29213; ATCC29213): > 100 µM
- MIC (E. faecalis B3/101 (VRE)): > 100 µM
- MIC (P. aeruginosa ATCC 27853): > 100 µM
- MIC (S. aureus 66/1 (MRSA)): > 100 µM

SMILES: CC(C)C[C@@H]1NC(=O)[C@@H](Cc2c[nH]c3ccccc23)n2c1nc1c(Cl)cc(Cl)cc1c2=O [Compound 4]
- RFI ± SD (E. coli AG100A [1]; compound at 50 μM): 0.26 ± 0.07
- decrease in biofilm formation (MRSA 272123): 91%
- RFI ± SD (E. coli AG100 [2]; compound at 50 μM): 0.01 ± 0.02
- antibiofilm effect (in words) (E. coli AG100 [4]): reduced the amount of biofilm
- MIC (Staphylococcus aureus; resistant strain of S. aureus): 8 µg/mL (≈ 17 µM)
- MIC (Staphylococcus aureus; sensitive strain of S. aureus): 4 µg/mL (≈ 8.52 µM)
- RFI ± SD (S. aureus 272123; compound at 50 μM): 1.13 ± 0.20
- MIC (E. coli AG100A [7]): > 100 µM
- MIC (E. coli AG100 [8]): > 100 µM
- MIC (S. aureus MRSA 272123): > 100 µM

SMILES: CC(C)C[C@@H]1NC(=O)[C@@H](Cc2c[nH]c3ccccc23)n2c1nc1ccc(F)cc1c2=O [Compound 12a, (1S,4R)-4-((1H-indol-3-yl)methyl)-8-fluoro-1-isobutyl-1,2-dihydro-6H-pyrazino[2,1-b]quinazoline-3,6(4H)-dione]
- RFI ± SD (E. coli AG100A [1]; compound at 100 μM): 0.59 ± 0.03
- RFI ± SD (E. coli AG100 [2]; compound at 50 μM): −0.17 ± 0.02
- RFI ± SD (E. coli AG100 [2]; compound at 100 μM): 2.45 ± 0.26
- antibiofilm effect (in words) (E. coli AG100 [4]): reduced the amount of biofilm
- RFI ± SD (S. aureus 272123; compound at 50 μM): 0.63 ± 0.04
- RFI ± SD (S. aureus 272123; compound at 100 μM): 1.03 ± 0.02
- IC50 [5]: 52.2 ± 0.75 µM
- MIC (E. faecalis PSi/107): > 100 µM
- MIC (E. faecalis ATCC 29212; ATCC29212): > 100 µM
- MIC (S. aureus MRSA 272123): > 100 µM
- MIC (E. faecalis PFi/2): > 100 µM
- MIC (S. aureus ATCC 29213; ATCC29213): > 100 µM
- MIC (E. faecalis B3/101 (VRE)): 77 µM and 32 µg/mL
- MIC (S. aureus 66/1 (MRSA)): 77 µM and 32 µg/mL
- MIC of vancomycin in combination with the compound (E. faecalis B3/101; E. faecalis B3/101, compound at 16 µg/mL): 256 µg/mL

SMILES: CC(C)C[C@@H]1NC(=O)[C@H](Cc2c[nH]c3cc(F)ccc23)n2c1nc1c(Cl)cc(Cl)cc1c2=O [Compound 12c]
- RFI ± SD (E. coli AG100A [1]; compound at 100 μM): 4.40 ± 1.78
- RFI ± SD (E. coli AG100 [2]; compound at 50 μM): 0.24 ± 0.16
- RFI ± SD (E. coli AG100 [2]; compound at 100 μM): 3.60 ± 0.01
- RFI ± SD (S. aureus 272123; compound at 6.25 μM (MIC/2)): 0.49 ± 0.01
- antibiofilm capacity (in words) [9]: did not show any relevant activity
- IC50 [5]: 46.1 ± 0.66 µM
- MIC (E. faecalis PSi/107): > 100 µM
- MIC (E. faecalis ATCC 29212; ATCC29212): 33 to 66 µM
- MIC (E. faecalis ATCC 29212; [12]): 16 to 32 µg/mL
- MIC (S. aureus MRSA 272123): 12.5 µM and 6.1 µg/mL
- MIC (E. faecalis PFi/2): > 100 µM
- MIC (S. aureus ATCC 29213; ATCC29213): 33 µM
- MIC (S. aureus ATCC 29213; [13]): 16 µg/mL
- MIC (E. faecalis B3/101 (VRE)): 33 µM and 16 µg/mL
- MIC (S. aureus 66/1 (MRSA)): 33 µM and 16 µg/mL

SMILES: CC(C)C[C@@H]1NC(=O)[C@H](Cc2c[nH]c3c(Cl)cccc23)n2c1nc1c(Cl)cc(Cl)cc1c2=O [Compound 12d, (1S,4S)-8,10-dichloro-4-((7-chloro-1H-indol-3-yl)methyl)-1-isobutyl-1,2-dihydro-6H-pyrazino[2,1-b]quinazoline-3,6(4H)-dione]
- RFI ± SD (E. coli AG100A [1]; compound at 100 μM): 0.23 ± 0.05
- RFI ± SD (E. coli AG100 [2]; compound at 100 μM): 0.32 ± 0.10
- RFI ± SD (S. aureus 272123; compound at 12.5 μM): 0.34 ± 0.01
- antibiofilm capacity (in words) [9]: did not show any relevant activity
- MIC [10]: 16 to 32 µM (≈ 8.06 to 16.1 µg/mL)
- IC50 [5]: 47.2 ± 1.55 µM
- MIC (E. faecalis PSi/107): > 100 µM
- MIC (E. faecalis ATCC 29212; ATCC29212): 64 µM
- MIC (E. faecalis ATCC 29212; [12]): 32 µg/mL
- MIC (S. aureus MRSA 272123): 25 µM and 12.6 µg/mL
- MIC (E. faecalis PFi/2): > 100 µM
- MIC (S. aureus ATCC 29213; ATCC29213): 32 µM
- MIC (S. aureus ATCC 29213; [13]): 16 µg/mL
- MIC (E. faecalis B3/101 (VRE)): 64 µM and 32 µg/mL
- MIC (S. aureus 66/1 (MRSA)): 16 µM and 8 µg/mL
- MIC [11]: 64 µM (≈ 32.2 µg/mL)

SMILES: CN[C@H](CC(C)C)C(=O)N[C@H]1C(=O)N[C@@H](CC(N)=O)C(=O)N[C@H]2C(=O)N[C@H]3C(=O)N[C@H](C(=O)N[C@H](C(=O)O)c4cc(O)cc(O)c4-c4cc3ccc4O)[C@H](O)c3ccc(c(Cl)c3)Oc3cc2cc(c3O[C@@H]2O[C@H](CO)[C@@H](O)[C@H](O)[C@H]2O[C@H]2C[C@](C)(N)[C@H](O)[C@H](C)O2)Oc2ccc(cc2Cl)[C@H]1O [vancomycin, reference compound]
- MIC (Enterococcus faecalis): 1024 µg/mL (≈ 707 µM)
- MIC (E. faecalis B3/101; Enterococcus faecalis, B3/101, read-out: MIC of vancomycin alone obtained in this study): 516 µg/mL
